T/C data for 14 compounds are collected here from PubChem BioAssay AID200 (DTP/NCI, 2004).

The test concerns B6C3F1 mice, B16 melanoma ip, median survival T/C. Description: NCI In Vivo Anticancer Drug Screen. Data for tumor model B16 Melanoma (intraperitoneal) in B6C3F1 mice. The note with it: endpoint: median survival time, higher = longer survival. The method in brief: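 Mice bearing transplanted tumor were dosed with compound or vehicle, and survival was recorded. Activity is expressed as the treated-group measurement (T) divided by the vehicle control measurement (C).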

The mark [1] stands for this setting: dose: 50.0 mg/kg/injection, schedule: Q01DX009 (ip), vehicle: saline with Tween-80.
Setting [2] is: dose: 100.0 mg/kg/injection, schedule: Q01DX009 (ip), vehicle: saline with Tween-80.
The mark [3] stands for this setting: dose: 6.0 mg/kg/injection, schedule: Q01DX009 (ip), vehicle: saline with Tween-80.
[4] abbreviates: dose: 6.25 mg/kg/injection, schedule: Q01DX009 (ip), vehicle: Klucel (hydroxypropylcellulose) (HPC).
[5] abbreviates: dose: 12.5 mg/kg/injection, schedule: Q01DX009 (ip), vehicle: Klucel (hydroxypropylcellulose) (HPC).
Setting [6] is: dose: 25.0 mg/kg/injection, schedule: Q01DX009 (ip), vehicle: Klucel (hydroxypropylcellulose) (HPC).
[7] abbreviates: dose: 50.0 mg/kg/injection, schedule: Q01DX009 (ip), vehicle: Klucel (hydroxypropylcellulose) (HPC).
The mark [8] stands for this setting: dose: 25.0 mg/kg/injection, schedule: Q01DX009 (ip), vehicle: saline + Tween-80 + alcohol.
Setting [9] is: dose: 100.0 mg/kg/injection, schedule: Q01DX009 (ip), vehicle: Klucel (hydroxypropylcellulose) (HPC).
Setting [10] is: dose: 200.0 mg/kg/injection, schedule: Q01DX009 (ip), vehicle: Klucel (hydroxypropylcellulose) (HPC).
The mark [11] stands for this setting: dose: 400.0 mg/kg/injection, schedule: Q01DX009 (ip), vehicle: Klucel (hydroxypropylcellulose) (HPC).

Where “and” joins values, the source holds several entries; their conditions need not be identical. Equal entries are not always repeated. Toxic doses and inconclusive results are not listed. Where a SMILES comes first, the peptide text is derived from it. [ ]: non-standard residue; d: D form. The star is where a group is joined. Cbz = O=C(OCc1ccccc1)*; Nva = CCC[CH](N)C(=O)O

Turning to `NC(=O)CC(N)C(=O)O` (stereo not drawn), the T/C under setting [1] is 108 % of control; the T/C under setting [2] was 100 % of control; the T/C (dose: 200.0 mg/kg/injection, schedule: Q01DX009 (ip), vehicle: saline with Tween-80) was 100 % of control; the T/C (dose: 400.0 mg/kg/injection, schedule: Q01DX009 (ip), vehicle: saline with Tween-80) was 105 % of control; the T/C (dose: 800.0 mg/kg/injection, schedule: Q01DX009 (ip), vehicle: saline with Tween-80) is 120 % of control; the T/C (dose: 1600.0 mg/kg/injection, schedule: Q01DX009 (ip), vehicle: saline with Tween-80) was 118 % of control.

Turning to `N#CC(=C1SCS1)[N+](=O)[O-]`, the T/C was 108 % of control (dose: 0.37 mg/kg/injection, schedule: Q01DX009 (ip), vehicle: saline with Tween-80); 100 % of control (dose: 0.75 mg/kg/injection, schedule: Q01DX009 (ip), vehicle: saline with Tween-80); 105 % of control (dose: 1.5 mg/kg/injection, schedule: Q01DX009 (ip), vehicle: saline with Tween-80); 119 % of control (dose: 3.0 mg/kg/injection, schedule: Q01DX009 (ip), vehicle: saline with Tween-80); 118 % of control under setting [3]; 107 % of control (dose: 12.0 mg/kg/injection, schedule: Q01DX009 (ip), vehicle: saline with Tween-80). The T/C was 107 % of control (dose: 375.0 micrograms/kg/injection, schedule: Q01DX009 (ip), vehicle: saline with Tween-80); 104 % of control (dose: 750.0 micrograms/kg/injection, schedule: Q01DX009 (ip), vehicle: saline with Tween-80); 113 % of control (dose: 1500.0 micrograms/kg/injection, schedule: Q01DX009 (ip), vehicle: saline with Tween-80); 108 % of control (dose: 3000.0 micrograms/kg/injection, schedule: Q01DX009 (ip), vehicle: saline with Tween-80); 101 % of control (dose: 6000.0 micrograms/kg/injection, schedule: Q01DX009 (ip), vehicle: saline with Tween-80).

As for `CC(C)(C[NH-])C[NH-].[Cl][Pt+2][Cl]`, the T/C (dose: 0.25 mg/kg/injection, schedule: Q01DX009 (ip), vehicle: water) was 111 % of control; the T/C (dose: 0.5 mg/kg/injection, schedule: Q01DX009 (ip), vehicle: water) is 123 % of control; the T/C (dose: 2.0 mg/kg/injection, schedule: Q01DX009 (ip), vehicle: water) is 175 % of control; the T/C (dose: 2.0 mg/kg/injection, schedule: Q04DX003 (ip), vehicle: water) is 168 % of control; the T/C (dose: 4.0 mg/kg/injection, schedule: Q04DX003 (ip), vehicle: water) was 200 % of control.

In the case of `Cc1ccc(C)c2c1CCC2C` (stereo not drawn), the T/C is 93 % of control under setting [1] and 86 % of control under setting [2].

As to `CN(C)CCCOc1nc2c(c(=O)n(C)c(=O)n2C)n1C` (tested in a mixture with another compound), the T/C runs as follows: under setting [4], 90 % of control; under setting [5], 111 % of control; under setting [6], 102 % of control; under setting [7], 107 % of control.

As for `O=C(Nc1ccccc1)c1c(O)[nH]c(=S)[nH]c1=O`, the T/C is 108 % of control under setting [3]; 114 % of control and 115 % of control (dose: 12.5 mg/kg/injection, schedule: Q01DX009 (ip), vehicle: saline with Tween-80); 153 % of control (dose: 44.0 mg/kg/injection, schedule: Q01DX009 (ip), vehicle: saline with Tween-80); 111 % of control (dose: 56.0 mg/kg/injection, schedule: Q01DX009 (oral), vehicle: saline with Tween-80); 161 % of control (dose: 67.0 mg/kg/injection, schedule: Q01DX009 (ip), vehicle: saline with Tween-80); 117 % of control (dose: 83.0 mg/kg/injection, schedule: Q01DX009 (oral), vehicle: saline with Tween-80). Besides, the T/C by setting is: (dose: 100.0 mg/kg/injection, schedule: Q01DX005 (oral), vehicle: saline with Tween-80) 110 % of control; (dose: 124.0 mg/kg/injection, schedule: Q01DX009 (oral), vehicle: saline with Tween-80) 114 % of control; (dose: 149.0 mg/kg/injection, schedule: Q01DX005 (oral), vehicle: saline with Tween-80) 118 % of control; (dose: 185.0 mg/kg/injection, schedule: Q01DX009 (oral), vehicle: saline with Tween-80) 121 % of control; (dose: 223.0 mg/kg/injection, schedule: Q01DX005 (oral), vehicle: saline with Tween-80) 114 % of control; (dose: 333.0 mg/kg/injection, schedule: Q01DX005 (oral), vehicle: saline with Tween-80) 116 % of control.

Consider `OC1CSC1`, for which the T/C is 109 % of control (dose: 50.0 mg/kg/injection, schedule: Q01DX009 (ip), vehicle: saline + alcohol); 107 % of control (dose: 100.0 mg/kg/injection, schedule: Q01DX009 (ip), vehicle: saline + alcohol); 113 % of control (dose: 200.0 mg/kg/injection, schedule: Q01DX009 (ip), vehicle: saline + alcohol); 112 % of control (dose: 400.0 mg/kg/injection, schedule: Q01DX009 (ip), vehicle: saline + alcohol).

As for `CCCCC(CC)(CC(=N)C(C)(C)C)c1ccccc1` (stereo not drawn), the T/C by setting is: under setting [8], 104 % of control; (dose: 50.0 mg/kg/injection, schedule: Q01DX009 (ip), vehicle: saline + Tween-80 + alcohol) 96 % of control.

Turning to `Nc1n[nH]c2ccccc12`, the T/C reads like this: (dose: 25.0 mg/kg/injection, schedule: Q01DX009 (ip), vehicle: acid diluted with saline) 101 % of control; (dose: 50.0 mg/kg/injection, schedule: Q01DX009 (ip), vehicle: acid diluted with saline) 102 % of control; (dose: 100.0 mg/kg/injection, schedule: Q01DX009 (ip), vehicle: acid diluted with saline) 95 % of control; (dose: 200.0 mg/kg/injection, schedule: Q01DX009 (ip), vehicle: acid diluted with saline) 88 % of control.

On to `CCCC(NC(=O)OCc1ccccc1)C(=O)NC(C(=O)O)C(C)C` (stereo not drawn) (Cbz-[Nva]-Val-OH; configuration not given here), for which the T/C runs as follows: under setting [9], 102 % of control; under setting [10], 109 % of control; under setting [11], 99 % of control.

Consider `N=C(N)c1nn(C2OC(CO)C(O)C2O)c2nc[nH]c(=O)c12` (stereo not drawn), for which the T/C reads like this: (dose: 2.25 mg/kg/injection, schedule: Q01DX009 (ip), vehicle: Klucel (hydroxypropylcellulose) (HPC)) 92 % of control and 102 % of control; (dose: 3.12 mg/kg/injection, schedule: Q01DX009 (ip), vehicle: Klucel + Tween-80) 99 % of control; (dose: 3.75 mg/kg/injection, schedule: Q01DX009 (ip), vehicle: Klucel (hydroxypropylcellulose) (HPC)) 112 % of control and 101 % of control; under setting [4], 112 % of control and 90 % of control; (dose: 10.42 mg/kg/injection, schedule: Q01DX009 (ip), vehicle: Klucel (hydroxypropylcellulose) (HPC)) 92 % of control; (dose: 17.36 mg/kg/injection, schedule: Q01DX009 (ip), vehicle: Klucel (hydroxypropylcellulose) (HPC)) 110 % of control and 98 % of control.

Consider `COc1cc(C2c3cc4c(cc3[C@@H](OC3OC5CO[C@@H](C)OC5C(O)C3O)[C@H]3COC(=O)C23)OCO4)cc(OC)c1OC` (stereo partly drawn), for which the T/C (dose: 21.6 mg/kg/injection, schedule: Q01DX009 (ip), vehicle: suspension in saline) is 120 % of control; the T/C (dose: 25.0 mg/kg/injection, schedule: Q01DX009 (ip), vehicle: saline) was 150 % of control; the T/C (dose: 50.0 mg/kg/injection, schedule: Q01DX009 (ip), vehicle: saline) was 160 % of control; the T/C (dose: 60.0 mg/kg/injection, schedule: Q01DX009 (ip), vehicle: suspension in saline) was 162 % of control; the T/C (dose: 100.0 mg/kg/injection, schedule: Q01DX009 (ip), vehicle: saline) was 193 % of control; the T/C (dose: 100.0 mg/kg/injection, schedule: Q01DX009 (ip), vehicle: suspension in saline) was 183 % of control.

Take `CC1C=NNC1=O` (stereo not drawn): the T/C under setting [5] was 100 % of control; the T/C under setting [6] was 102 % of control; the T/C under setting [7] is 117 % of control; the T/C under setting [9] was 92 % of control; the T/C under setting [10] is 95 % of control; the T/C under setting [11] was 95 % of control.

For `CNC(=S)C#N`, the T/C runs as follows: (dose: 12.5 mg/kg/injection, schedule: Q01DX009 (ip), vehicle: saline + Tween-80 + alcohol) 119 % of control; under setting [8], 86 % of control.
